Results from patent US20230190703A1, “TREATING SAR-COV-2 RELATED HEALTH PROBLEMS” (priority 2021, published 2023).

How the values were obtained:
U937 cells [1] = format: cell-based, human
U937 cells [2] = test: LDH assay (percent cytotoxicity); format: cell-based, human; settings: for cytotoxicity decrease: 10 μM, cytotoxicity induced by SPK; for effect on SPK-induced cytotoxicity at higher concentration: as concentrations increased (100 μM); for effect on cytotoxic effect of SPK (LDH): combined with SPK
Protocol: (§1) The cells used in this example originated from the cell line U937 cells and were purchased from ATCC.
10 μls of chemicals provided by ATCC were added into a 96-well plate with the treatment plan of control, control, control, SPK 10 μM, A1 10 μM, A1 100 μM, A2 10 μM, A2 100 μM, SPK+A1 10 μM, SPK+A1 100 μM, SPK+A2 10 μM, and SPK+A2 100 μM. After incubation for 48 hours, 30 μls of media from each well were removed and added into another 96 well plate labeled as released LDH. 30 microliters of LDH substrate mix were added to the released LDH plate to measure the released LDH by the cells from the treatments. This plate was left at room temperature and away from direct light for 30 minutes. After 30 minutes, 30 μls of LDH stop solution was added to each well to terminate the assay and prevent further color changes. The plate was placed in a microplate reader and optical density (OD) was determined for each sample at 490 nm. Another reading at 655 nm was performed to determine if there was any background interference with the reading. Then, 10 μls of LDH lysis buffer were added to the original plate containing the cells to lyse all the cells and to measure a total or maximum LDH for each sample. Another empty 96 well plate was then labeled total LDH. 30 μls of the cell lysate and media were transferred from the original plate containing the lysed cells into the empty 96 well plate labeled as total LDH. 30 μls of LDH substrate mix were added to each sample to measure the total LDH. The plate was left at room temperature for 30 minutes away from direct light. After the 30 minutes, 30 μls of LDH stop solution were added to each well to terminate the experiment. The OD of the total LDH plate was measured following the same measurement steps for the released LDH. The data collected from the 490 nm wavelength was subtracted by the data collected from the 655 nm wavelength to find the corrected OD for each sample's released and total LDH. The percent cytotoxicity was later calculated by the equation: (Sample OD released LDH−control OD released LDH)/(Sample OD total LDH−control OD released LDH)*100 and T-tests were applied to each group to measure significance for percent cytotoxicity.

colo 320 cells [3] = system: colo 320 cells
U937 cells [4] = test: caspase 9 assay; format: cell-based, human; settings: with SPK
Protocol: as §1
The cells were treated in a 6-well plate with the treatment plan of control, A1 10 μM, A2 10 μM, SPK10 μM, A1+SPK10 μM, and A2+SPK10 μM for 24 hours and collected in a 1.5 ml tube. Then, Colo cells were lysed by freezing and thawing 4 times. Then, 50 μl of caspase assay buffer will be added to every well of an empty 96-well plate. Also, 50 μl of lysis buffer will be added to the blank wells and 45 μl added to the treatment and control wells. 5 μl of lysed cells will be added to each treatment well with 5 μl of pNA Substrate Solution indeed to every well. The plate will then be taken for a reading at zero time point using a microplate reader at 405 nm. Afterwards, the plate will be covered and incubated at 37 degrees Celsius. […] The data from the Caspase Assay will be analyzed by calculating the change in optical density per minute (ΔOD). The ΔOD is obtained through subtracting the sample's start OD from the sample's final OD to determine the overall change in absorbance. The ΔOD/minutes is calculated by taking the ΔOD and dividing by the overall time in minutes. The ΔOD per minute of each sample is compared to the control by a percent change to determine the activity of caspase and apoptosis. The OD of the blank samples are subtracted from the OD of the treated sample to normalize the data and ensure minimal interference.

monocyte = settings: literature; cited from earlier work
colo 320 cells [5] = format: cell-based, human

Structure (SMILES)	decrease in adhesion molecule expression (U937 cells [1])	decrease of cell adhesion (U937 cells [1])	effect on adhesion molecule expression, in words (U937 cells [1])	cytotoxicity decrease (U937 cells [2])	effect on SPK-induced cytotoxicity at higher concentration (U937 cells [2])	effect on cytotoxic effect of SPK (LDH) (U937 cells [2])	mitigation of SPK induced cytotoxicity (colo 320 cells [3])	decrease of caspase activity that was increased by SPK (U937 cells [4])	effect on SPK caused apoptosis (caspase) (U937 cells [4])	monocyte cell adhesion (monocyte)	mitigation of SPK induced caspase apoptosis (colo 320 cells [5])
C[C@@H]1CC[C@H]2[C@@H](C)C(=O)O[C@@H]3O[C@@]4(C)CC[C@@H]1[C@]32OO4 [A1, Artemisinin]	around 70%	about 73%	significantly decreased the adhesion molecule expression	around 2.4%	the effectiveness decreased	reversed the cytotoxic effect of SPK from a positive value to a negative value	changed the cytotoxicity to a negative value	around 68%	decrease SPK caused apoptosis significantly	inhibit monocyte cell adhesion	remediate the increase in caspase apoptosis to a negative level
C[C@H]1[C@H](OC(=O)CCC(=O)O)O[C@@H]2O[C@@]3(C)CC[C@H]4[C@H](C)CC[C@@H]1[C@@]24OO3 [A2, Artesunate]	around 68%	around 70%	significantly decreased the adhesion molecule expression	around 0.8%	the effectiveness decreased	reversed the cytotoxic effect of SPK from a positive value to a negative value	changed the cytotoxicity to a negative value	~70%	decrease SPK caused apoptosis significantly	inhibit monocyte cell adhesion	remediate the increase in caspase apoptosis to a negative level
